Experiments:
granzyme-B (GZM-B) = assay: GZM-B expression in KHYG-1 cells (immunoblotting, real-time qPCR); assay type: cell-based; details: pomalidomide 0.25-1 μM, 24 h
Method: (A) KHYG1 cells were cultured with pomalidomide (0.25-1 μM) for 24 h. (B) Isolated primary NK cells from healthy volunteers (#1, #2) were cultured with pomalidomide (0.3-1 μM) for 24 h. (C) KHYG-1 cells were transfected with Scsi or Zap-70si. After 48 h, cells were cultured for 24 h in the absence or presence (0.5 μM) of pomalidomide. Whole cell lysates and RNAs were subjected to immunoblotting using indicated Abs.
(A) KHYG-1 cells were transfected with Scsi or CRBNsi. After 48 h, cells were cultured in the absence or presence of pomalidomide (0.5 μM) for 24 h, and cell lysates immunoblotted with indicated Abs. (B) KHYG-1 cells were transfected with Scsi or Zap-70si, and then cultured for 72 h with pomalidomide (0.25 μM), in the absence of IL-2. Cells were counted and incubated with calcein AM-labeled U266 for 4 h at indicated effector/target (E/T) ratios.
(A) KHYG-1 cells were transfected with CRBN, IKZF1, or IKZF3 siRNA. The transfectants were then cultured for 24 h with pomalidomide (0.5 μM). The arrow indicates CRBN. (B) KHYG-1 cells were cultured with pomalidomide for 24 h (0.5 μM), in the presence or absence of bortezomib (BTZ; 2.5 and 5 nM). (C, D) KHYG-1 cells were cultured for 24 h with lenalidomide, pomalidomide, or CC-220 (i.e., iberdomide) (0.01-1 μM). Whole cell lysates and RNAs were subjected to immunoblotting using indicated Abs (C) and real-time q-PCR (D), respectively.

Zap-70 [1] = biological target: T1, Zap-70 (Homo sapiens, UniProt P43403); assay: PathScan Phospho-Zap-70 (Tyr319) Sandwich ELISA in Jurkat cells; assay type: cell-based; details: lenalidomide (1 and 3 μM) or pomalidomide (1 and 3 μM), 4 h and 8 h, Len<Pom
T1 sequence (P43403 1-619): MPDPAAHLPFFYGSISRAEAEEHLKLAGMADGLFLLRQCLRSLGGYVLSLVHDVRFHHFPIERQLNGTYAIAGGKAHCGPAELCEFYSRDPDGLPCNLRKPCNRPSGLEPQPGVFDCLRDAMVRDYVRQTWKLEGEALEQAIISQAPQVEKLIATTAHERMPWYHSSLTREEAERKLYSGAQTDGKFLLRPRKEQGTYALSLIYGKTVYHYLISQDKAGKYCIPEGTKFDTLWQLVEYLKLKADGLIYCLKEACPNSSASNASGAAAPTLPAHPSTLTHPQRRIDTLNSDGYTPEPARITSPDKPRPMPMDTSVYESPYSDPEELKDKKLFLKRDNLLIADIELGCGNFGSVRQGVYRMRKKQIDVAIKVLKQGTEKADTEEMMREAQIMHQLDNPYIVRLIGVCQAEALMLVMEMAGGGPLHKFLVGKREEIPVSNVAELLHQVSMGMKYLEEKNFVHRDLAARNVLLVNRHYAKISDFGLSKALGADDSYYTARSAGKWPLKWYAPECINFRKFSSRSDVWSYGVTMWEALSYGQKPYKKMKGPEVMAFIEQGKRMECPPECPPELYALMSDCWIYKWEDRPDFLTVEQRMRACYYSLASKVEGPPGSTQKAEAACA
Method: (A) Jurkat cells were transfected with scrambled (Sc) siRNA or Zap-70 siRNA. Whole cell lysates were subjected to immunoblotting using indicated Abs. (B) Jurkat cells were treated with lenalidomide ([…]) or pomalidomide (1 and 3 μM) for 4 h and 8 h. Whole cell lysates were subjected to p-Zap ELISA assay. (C) Jurkat whole cell lysates were incubated with pomalidomide-beads in the presence or absence of competitor (1 mM free pomalidomide) for 1 h. After elution, samples were subjected to immunoblotting using anti-Zap-70 Ab. (D) Saturation-transfer difference resulting from the binding of pomalidomide to Zap-70. Pomalidomide is at 320 μM and Zap-70 is approximately 2 μM in deuterated PBS solution. […] (E) Saturation-transfer difference resulting from the binding of pomalidomide to Zap-70 in the presence of 2.56 mMATP. Pomalidomide is at 320 μM and Zap-70 is approximately 2 μM in deuterated PBS solution. […] Note that both ATP and pomalidomide show binding the Zap-70. (F) Non-cell based Zap-70 kinase assay was carried out, according to manufacturer's protocol.
Phosphorylation of Zap-70 was evaluated using PathScan Phospho-Zap-70 (Tyr319) Sandwich ELISA Kit (Cell Signaling Technology), according to manufacturer's protocol.

primary NK cells = assay: Primary NK cell viable cell number by trypan-blue dye exclusion; assay type: cell-based, human; details: primary NK cells #1, #2, pomalidomide 0-0.5 μM, 24 h
Method: Isolated primary NK cells from two healthy volunteers were cultured for 24 h with pomalidomide (0-0.5 μM). Viable cell number was measured by trypan-blue dye exclusion.

Zap-70 [2] = biological target: T1, Zap-70; assay: Immunoblotting of p-Zap-70 in KHYG-1 NK cell line; assay type: cell-based; details: KHYG-1 cells, pomalidomide 0.25-1 μM, 24 h
Method: KHYG-1 cells were cultured with pomalidomide (0.25-1 μM) for 24 h. (A) Whole cell lysates were subjected to immunoblotting using indicated Abs. (B) KHYG-1 cells were incubated with calcein-AM-stained U266 cells for 4 h at the indicated effector/target (E/T) ratios. Percent specific lysis was calculated as described previously. (C) KHYG-1 cells were transfected with Scsi or Zap-70si, and then cultured with pomalidomide (0.25 μM) for 72 h in the absence of IL-2. Viable cell number was determined, and cells were then incubated with calcein AM-labeled U266 target cells for 4 h at indicated effector/target (E/T) ratios. Percent specific lysis was calculated as described previously. (D) After transfection with Scsi or Zap-70si, cells were cultured with lenalidomide or pomalidomide for 72 h. Cell growth was assessed by MTT assay. (E) KHYG-1 cells were transfected with scrambled (Scsi) or CRBNsi. The transfectants were then cultured with pomalidomide (0.5 μM) for 24 h, and whole cell lysates were subjected to immunoblotting using indicated Abs. The arrow indicates CRBN expression. (F) Primary NK cells (#1, #2, #3, #4) were isolated from healthy volunteer's PBMCs, as described in Materials and Methods. NK cells were cultured with pomalidomide (0.5 μM) for 24 h, and whole cell lysates were subjected to immunoblotting using indicated Abs. […] Percent specific lysis was calculated as previously described.

For `Nc1cccc2c1C(=O)N(C1CCC(=O)NC1=O)C2=O` (stereo not shown) [pomalidomide], the GZM-B expression (granzyme-B (GZM-B)) was “upregulated GZM-B expression”, the “p-Zap-70 (Tyr319) by ELISA” value (Zap-70 [1]) was “increased p-Zap-70 (Tyr319) in a dose-dependent fashion” and the “NK cell growth (viable cell number)” value (primary NK cells) was “without significantly effecting NK cell growth”. The “p-Zap-70 (immunoblotting)” value (Zap-70 [2]) was “similarly enhanced p-Zap-70 in KHYG-1 cells”.
